The source made the active and inactive calls. The rule behind the calls is not given here.
Assays:
[1] = test system: Brassica rapa subsp. oleifera; test: Post-emergence herbicidal activity against one-leaf stage Brassica rapa subsp. oleifera under greenhouse condition assessed as complete bleaching of leaves at 600 g /ha measured after 24 days by spray method; type: functional, organism-based
[2] = test system: Brassica rapa subsp. oleifera; test: Post-emergence herbicidal activity against one-leaf stage Brassica rapa subsp. oleifera under greenhouse condition at 7.5 g /ha measured after 24 days by spray method; type: functional; conditions: 576 h, read-out: GI
[3] = test system: Brassica rapa subsp. oleifera; test: Post-emergence herbicidal activity against one-leaf stage Brassica rapa subsp. oleifera under greenhouse condition at 15 g /ha measured after 24 days by spray method; type: functional; conditions: 576 h, read-out: GI
[4] = test system: Brassica rapa subsp. oleifera; test: Post-emergence herbicidal activity against one-leaf stage Brassica rapa subsp. oleifera under greenhouse condition at 30 g /ha measured after 24 days by spray method; type: functional; conditions: 576 h, read-out: GI
[5] = test system: Brassica rapa subsp. oleifera; test: Post-emergence herbicidal activity against one-leaf stage Brassica rapa subsp. oleifera under greenhouse condition at 60 g /ha measured after 24 days by spray method; type: functional; conditions: 576 h, read-out: GI
[6] = test system: Brassica rapa subsp. oleifera; test: Post-emergence herbicidal activity against one-leaf stage Brassica rapa subsp. oleifera under greenhouse condition at 75 g /ha measured after 24 days by spray method; type: functional; conditions: 576 h, read-out: GI
[7] = test system: Brassica rapa subsp. oleifera; test: Post-emergence herbicidal activity against one-leaf stage Brassica rapa subsp. oleifera under greenhouse condition at 150 g /ha measured after 24 days by spray method; type: functional; conditions: 576 h, read-out: GI
[8] = test system: Brassica rapa subsp. oleifera; test: Post-emergence herbicidal activity against one-leaf stage Brassica rapa subsp. oleifera under greenhouse condition at 300 g /ha measured after 24 days by spray method; type: functional; conditions: 576 h, read-out: GI
[9] = test system: Brassica rapa subsp. oleifera; test: Post-emergence herbicidal activity against one-leaf stage Brassica rapa subsp. oleifera under greenhouse condition at 600 g /ha measured after 24 days by spray method; type: functional; conditions: 576 h, read-out: GI
[10] = test system: Digitaria; test: Post-emergence herbicidal activity against one-leaf stage of Digitaria adscendens under greenhouse condition at 750 g /ha measured after 24 days by spray method; type: functional; conditions: in Digitaria adscendens, 576 h, read-out: GI
[11] = test system: Echinochloa crus-galli; test: Post-emergence herbicidal activity against one-leaf stage of Echinochloa crus-galli (barnyard grass) under greenhouse condition at 750 g /ha measured after 24 days by spray method; type: functional; conditions: 576 h, read-out: GI
[12] = test system: Amaranthus retroflexus; test: Post-emergence herbicidal activity against one-leaf stage of Amaranthus retroflexus under greenhouse condition at 750 g /ha measured after 24 days by spray method; type: functional; conditions: 576 h, read-out: GI
[13] = test system: Brassica rapa subsp. oleifera; test: Post-emergence herbicidal activity against one-leaf stage Brassica rapa subsp. oleifera under greenhouse condition at 750 g /ha measured after 24 days by spray method; type: functional; conditions: 576 h, read-out: GI
[14] = test system: Digitaria; test: Pre-emergence herbicidal activity against Digitaria adscendens under greenhouse condition at 750 g /ha measured after 24 days by spray method; type: functional; conditions: in Digitaria adscendens, 576 h, read-out: GI
[15] = test system: Echinochloa crus-galli; test: Pre-emergence herbicidal activity against Echinochloa crus-galli (barnyard grass) under greenhouse condition at 750 g /ha measured after 24 days by spray method; type: functional; conditions: 576 h, read-out: GI
[16] = test system: Amaranthus retroflexus; test: Pre-emergence herbicidal activity against Amaranthus retroflexus under greenhouse condition at 750 g /ha measured after 24 days by spray method; type: functional; conditions: 576 h, read-out: GI
[17] = test system: Brassica rapa subsp. oleifera; test: Pre-emergence herbicidal activity against Brassica rapa subsp. oleifera under greenhouse condition at 750 g /ha measured after 24 days by spray method; type: functional; conditions: 576 h, read-out: GI
[18] = test system: Spirodela polyrhiza; test: Bleaching herbicidal activity in Spirodela polyrhiza fronds cultured in compound-containing in medium assessed as chlorophyll inhibition at 1 ug/ml after 7 days; type: functional; conditions: 168 h
[19] = test system: Spirodela polyrhiza; test: Bleaching herbicidal activity in Spirodela polyrhiza fronds cultured in compound-containing in medium assessed as chlorophyll inhibition at 10 ug/ml after 7 days; type: functional; conditions: 168 h
[20] = test system: Amaranthus retroflexus; test: Post-emergence herbicidal activity against one-leaf stage Amaranthus retroflexus under greenhouse condition assessed as complete bleaching of leaves at 150 g /ha measured after 24 days by spray method; type: functional, organism-based
[21] = test system: Amaranthus retroflexus; test: Post-emergence herbicidal activity against one-leaf stage Amaranthus retroflexus under greenhouse condition assessed as complete bleaching of leaves at 300 g /ha measured after 24 days by spray method; type: functional, organism-based
[22] = test system: Amaranthus retroflexus; test: Post-emergence herbicidal activity against one-leaf stage Amaranthus retroflexus under greenhouse condition assessed as complete bleaching of leaves at 600 g /ha measured after 24 days by spray method; type: functional, organism-based
[23] = test system: Brassica rapa subsp. oleifera; test: Post-emergence herbicidal activity against one-leaf stage Brassica rapa subsp. oleifera under greenhouse condition assessed as complete bleaching of leaves at 7.5 g /ha measured after 24 days by spray method; type: functional, organism-based
[24] = test system: Brassica rapa subsp. oleifera; test: Post-emergence herbicidal activity against one-leaf stage Brassica rapa subsp. oleifera under greenhouse condition assessed as complete bleaching of leaves at 15 g /ha measured after 24 days by spray method; type: functional, organism-based
[25] = test system: Brassica rapa subsp. oleifera; test: Post-emergence herbicidal activity against one-leaf stage Brassica rapa subsp. oleifera under greenhouse condition assessed as complete bleaching of leaves at 30 g /ha measured after 24 days by spray method; type: functional, organism-based
[26] = test system: Brassica rapa subsp. oleifera; test: Post-emergence herbicidal activity against one-leaf stage Brassica rapa subsp. oleifera under greenhouse condition assessed as complete bleaching of leaves at 60 g /ha measured after 24 days by spray method; type: functional, organism-based
[27] = test system: Brassica rapa subsp. oleifera; test: Post-emergence herbicidal activity against one-leaf stage Brassica rapa subsp. oleifera under greenhouse condition assessed as complete bleaching of leaves at 75 g /ha measured after 24 days by spray method; type: functional, organism-based
[28] = test system: Brassica rapa subsp. oleifera; test: Post-emergence herbicidal activity against one-leaf stage Brassica rapa subsp. oleifera under greenhouse condition assessed as complete bleaching of leaves at 150 g /ha measured after 24 days by spray method; type: functional, organism-based
[29] = test system: Brassica rapa subsp. oleifera; test: Post-emergence herbicidal activity against one-leaf stage Brassica rapa subsp. oleifera under greenhouse condition assessed as complete bleaching of leaves at 300 g /ha measured after 24 days by spray method; type: functional, organism-based
[30] = test system: Amaranthus retroflexus; test: Post-emergence herbicidal activity against one-leaf stage Amaranthus retroflexus under greenhouse condition assessed as complete bleaching of leaves at 15 g /ha measured after 24 days by spray method; type: functional, organism-based
[31] = test system: Amaranthus retroflexus; test: Post-emergence herbicidal activity against one-leaf stage Amaranthus retroflexus under greenhouse condition at 7.5 g /ha measured after 24 days by spray method; type: functional; conditions: 576 h, read-out: GI
[32] = test system: Amaranthus retroflexus; test: Post-emergence herbicidal activity against one-leaf stage Amaranthus retroflexus under greenhouse condition at 15 g /ha measured after 24 days by spray method; type: functional; conditions: 576 h, read-out: GI
[33] = test system: Amaranthus retroflexus; test: Post-emergence herbicidal activity against one-leaf stage Amaranthus retroflexus under greenhouse condition at 30 g /ha measured after 24 days by spray method; type: functional; conditions: 576 h, read-out: GI
[34] = test system: Amaranthus retroflexus; test: Post-emergence herbicidal activity against one-leaf stage Amaranthus retroflexus under greenhouse condition at 60 g /ha measured after 24 days by spray method; type: functional; conditions: 576 h, read-out: GI
[35] = test system: Amaranthus retroflexus; test: Post-emergence herbicidal activity against one-leaf stage Amaranthus retroflexus under greenhouse condition at 75 g /ha measured after 24 days by spray method; type: functional; conditions: 576 h, read-out: GI
[36] = test system: Amaranthus retroflexus; test: Post-emergence herbicidal activity against one-leaf stage Amaranthus retroflexus under greenhouse condition at 150 g /ha measured after 24 days by spray method; type: functional; conditions: 576 h, read-out: GI
[37] = test system: Amaranthus retroflexus; test: Post-emergence herbicidal activity against one-leaf stage Amaranthus retroflexus under greenhouse condition at 300 g /ha measured after 24 days by spray method; type: functional; conditions: 576 h, read-out: GI
[38] = test system: Amaranthus retroflexus; test: Post-emergence herbicidal activity against one-leaf stage Amaranthus retroflexus under greenhouse condition at 600 g /ha measured after 24 days by spray method; type: functional; conditions: 576 h, read-out: GI
[39] = test system: Amaranthus retroflexus; test: Post-emergence herbicidal activity against one-leaf stage Amaranthus retroflexus under greenhouse condition assessed as complete bleaching of leaves at 7.5 g /ha measured after 24 days by spray method; type: functional, organism-based
[40] = test system: Amaranthus retroflexus; test: Post-emergence herbicidal activity against one-leaf stage Amaranthus retroflexus under greenhouse condition assessed as complete bleaching of leaves at 30 g /ha measured after 24 days by spray method; type: functional, organism-based
[41] = test system: Amaranthus retroflexus; test: Post-emergence herbicidal activity against one-leaf stage Amaranthus retroflexus under greenhouse condition assessed as complete bleaching of leaves at 60 g /ha measured after 24 days by spray method; type: functional, organism-based
[42] = test system: Amaranthus retroflexus; test: Post-emergence herbicidal activity against one-leaf stage Amaranthus retroflexus under greenhouse condition assessed as complete bleaching of leaves at 75 g /ha measured after 24 days by spray method; type: functional, organism-based

Cc1cc(-c2cccc(C(F)(F)F)c2)c(Oc2ccc(Cl)c(Cl)c2)nn1
Activity [1]: Active
inhibition of growth at 7.5 g/ha [2]: 58%
inhibition of growth at 15 g/ha [3]: 89%
inhibition of growth at 30 g/ha [4]: 100%
inhibition of growth at 60 g/ha [5]: 100%
inhibition of growth at 75 g/ha [6]: 100%
inhibition of growth at 150 g/ha [7]: 100%
inhibition of growth at 300 g/ha [8]: 100%
inhibition of growth at 600 g/ha [9]: 100%
inhibition of growth at 750 g/ha [10]: 100%
inhibition of growth at 750 g/ha [11]: 87%
inhibition of growth at 750 g/ha [12]: 100%
inhibition of growth at 750 g/ha [13]: 100%
inhibition of growth at 750 g/ha [14]: 6%
inhibition of growth at 750 g/ha [15]: 19%
inhibition of growth at 750 g/ha [16]: 0%
inhibition of growth at 750 g/ha [17]: 27%
inhibition at 1 µg/mL [18]: 93%
inhibition at 10 µg/mL [19]: 96%
Activity [20]: Active
Activity [21]: Active
Activity [22]: Active
Activity [23]: Active
Activity [24]: Active
Activity [25]: Active
Activity [26]: Active
Activity [27]: Active
Activity [28]: Active
Activity [29]: Active
Activity [30]: Active
inhibition of growth at 7.5 g/ha [31]: 32%
inhibition of growth at 15 g/ha [32]: 34%
inhibition of growth at 30 g/ha [33]: 42%
inhibition of growth at 60 g/ha [34]: 47%
inhibition of growth at 75 g/ha [35]: 85%
inhibition of growth at 150 g/ha [36]: 100%
inhibition of growth at 300 g/ha [37]: 100%
inhibition of growth at 600 g/ha [38]: 100%
Activity [39]: Active
Activity [40]: Active
Activity [41]: Active
Activity [42]: Active

Cc1cc(-c2cccc(C(F)(F)F)c2)c(Oc2ccc(C#N)cc2)nn1
Activity [1]: Active
inhibition of growth at 7.5 g/ha [2]: 41%
inhibition of growth at 15 g/ha [3]: 47%
inhibition of growth at 30 g/ha [4]: 57%
inhibition of growth at 60 g/ha [5]: 89%
inhibition of growth at 75 g/ha [6]: 90%
inhibition of growth at 150 g/ha [7]: 95%
inhibition of growth at 300 g/ha [8]: 98%
inhibition of growth at 600 g/ha [9]: 99%
inhibition of growth at 750 g/ha [10]: 99%
inhibition of growth at 750 g/ha [11]: 83%
inhibition of growth at 750 g/ha [12]: 100%
inhibition of growth at 750 g/ha [13]: 96%
inhibition of growth at 750 g/ha [14]: 99%
inhibition of growth at 750 g/ha [15]: 91%
inhibition of growth at 750 g/ha [16]: 99%
inhibition of growth at 750 g/ha [17]: 100%
inhibition at 1 µg/mL [18]: 87%
inhibition at 10 µg/mL [19]: 93%
Activity [20]: Active
Activity [21]: Active
Activity [22]: Active
Activity [23]: Active
Activity [24]: Active
Activity [25]: Active
Activity [26]: Active
Activity [27]: Active
Activity [28]: Active
Activity [29]: Active
Activity [30]: Active
inhibition of growth at 7.5 g/ha [31]: 34%
inhibition of growth at 15 g/ha [32]: 37%
inhibition of growth at 30 g/ha [33]: 38%
inhibition of growth at 60 g/ha [34]: 42%
inhibition of growth at 75 g/ha [35]: 99%
inhibition of growth at 150 g/ha [36]: 100%
inhibition of growth at 300 g/ha [37]: 100%
inhibition of growth at 600 g/ha [38]: 100%
Activity [39]: Active
Activity [40]: Active
Activity [41]: Active
Activity [42]: Active

Reference: ChEMBL document CHEMBL3045111, “Synthesis and herbicidal activities of novel 3-(substituted benzyloxy or phenoxy)-6-methyl-4-(3-trifluoromethylphenyl)pyridazine derivatives” (2012)
